# Assay results reported in US7833513B2, “Treatment of Alzheimer's Disease” (Rhode Island Hospital, priority 2004, dated 2010).
# Experiments:
# Type in all cases: in vivo, Long Evans rat
# [1] = target: T1, insulin receptor (Rattus norvegicus, UniProt P15127); assay: ic-STZ ± PPAR agonist: equilibrium and saturation binding to insulin receptors in the brain; details: for BMAX, insulin receptor saturation binding in brains of treated rats: [125I]-insulin tracer, pooled brain membranes, 4 weeks after ic-STZ ± IP PPAR agonist; for mean insulin receptor binding: temporal lobe and cerebellum
# T1 construct: from tissue; host or cells: rat brain (temporal lobe)
# T1 sequence (P15127 27-759 limits assumed): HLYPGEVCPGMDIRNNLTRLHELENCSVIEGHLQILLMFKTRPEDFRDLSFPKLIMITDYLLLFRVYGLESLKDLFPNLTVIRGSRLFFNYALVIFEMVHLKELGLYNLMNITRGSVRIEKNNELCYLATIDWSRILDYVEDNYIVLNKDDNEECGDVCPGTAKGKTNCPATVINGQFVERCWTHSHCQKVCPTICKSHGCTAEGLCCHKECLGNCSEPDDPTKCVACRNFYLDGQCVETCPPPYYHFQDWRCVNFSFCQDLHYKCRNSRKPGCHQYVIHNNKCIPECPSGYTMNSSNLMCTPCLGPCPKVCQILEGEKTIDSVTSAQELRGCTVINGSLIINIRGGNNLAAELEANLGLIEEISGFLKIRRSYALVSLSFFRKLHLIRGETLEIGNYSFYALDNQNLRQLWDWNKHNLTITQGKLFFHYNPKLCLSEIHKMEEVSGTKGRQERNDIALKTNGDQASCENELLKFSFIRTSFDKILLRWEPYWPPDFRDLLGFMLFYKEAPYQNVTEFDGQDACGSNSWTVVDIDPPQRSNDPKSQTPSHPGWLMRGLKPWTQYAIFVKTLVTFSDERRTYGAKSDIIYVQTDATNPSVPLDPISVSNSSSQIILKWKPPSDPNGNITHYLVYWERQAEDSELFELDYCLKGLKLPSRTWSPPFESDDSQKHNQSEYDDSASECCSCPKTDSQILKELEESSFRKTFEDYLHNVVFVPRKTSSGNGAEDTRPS
# T1 sequence (P15127 764-1383 limits assumed): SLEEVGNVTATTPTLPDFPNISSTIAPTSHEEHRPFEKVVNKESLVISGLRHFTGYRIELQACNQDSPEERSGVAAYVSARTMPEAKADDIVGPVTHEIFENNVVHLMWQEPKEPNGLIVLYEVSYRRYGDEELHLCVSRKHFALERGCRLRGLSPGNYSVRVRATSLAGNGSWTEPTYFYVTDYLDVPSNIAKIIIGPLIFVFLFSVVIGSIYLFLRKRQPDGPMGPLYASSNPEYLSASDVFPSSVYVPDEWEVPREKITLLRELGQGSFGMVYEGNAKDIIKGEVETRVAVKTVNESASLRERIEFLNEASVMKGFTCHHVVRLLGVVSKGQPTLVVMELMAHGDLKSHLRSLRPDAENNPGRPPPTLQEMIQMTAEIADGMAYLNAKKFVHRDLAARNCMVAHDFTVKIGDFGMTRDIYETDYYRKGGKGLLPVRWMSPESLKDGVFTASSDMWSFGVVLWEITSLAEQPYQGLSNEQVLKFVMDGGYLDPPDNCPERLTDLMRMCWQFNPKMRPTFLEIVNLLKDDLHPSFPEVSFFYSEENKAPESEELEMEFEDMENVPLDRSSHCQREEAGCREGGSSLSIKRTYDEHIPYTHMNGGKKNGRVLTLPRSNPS
# Protocol: (§1) On the same day, sub-sets of the ic-STZ group were given a single intra-peritoneal injection of vehicle (saline), or a PPAR-α (GW7647; 25 ug/Kg), PPAR-δ (L-165,041; 2 μg/Kg), or PPAR-γ (F-L-Leu; 20 μg/Kg) activator (CalBiochem, Carlsbad, Calif.). […] In addition, at 4 weeks of age, memory and learning were evaluated using a Morris Water Maze (R. W. Hickey, M. Akino, S. Strausbaugh, G. M. De Courten-Myers. Use of the Morris water maze and acoustic startle chamber to evaluate neurologic injury after asphyxial arrest in rats. Pediatr Res 39(1) (1996), 77-84). The procedures and use of rats in these experiments were approved by the Lifespan-Rhode Island Hospital IACUC committee.
# (§2) Membrane protein extracted from fresh frozen brain tissue was used for competitive equilibrium and saturation binding assays. For total binding in equilibrium binding assays, duplicate samples were incubated in 100 μl reactions containing binding buffer (100 mM HEPES, pH 8.0, 118 mM NaCl, 1.2 mM MgSO4, 8.8 mM dextrose, 5 mM KCl, 1% bovine serum albumin) and 100 nCi/ml of [^125I] […] To measure total binding in saturation binding assays, samples from 8-12 brains per group were pooled in equal proportions, and duplicate samples were incubated in 100 μl reactions containing binding buffer and 0.0031 to 1 μCi/ml of [^125I] […] To detect non-specific binding in the equilibrium and saturation binding assays, duplicate reactions were incubated with the same concentrations of radiolabeled tracer plus 0.1 μM unlabeled (cold) competitive ligand. After 16 hours incubation at 4° C., bound radiolabeled tracer was precipitated with bovine gamma globulin and polyethylene glycol 8000. The precipitate (bound ligand) and supernatant (free ligand) fractions were counted in an LKB CompuGamma CS Gamma counter. Specific binding was calculated by subtracting fmols of non-specific binding, i.e. amount bound in the presence of excess cold ligand, from total fmols bound in the absence of unlabeled competitive ligand. GraphPad Prism 4 software (San Diego, Calif.) was used to calculate saturation binding (BMAX) and binding affinity (Kd) for each data set.
# [2] = target: T2, IGF-II receptor (Rattus norvegicus, UniProt G3V824); assay: ic-STZ ± PPAR agonist: equilibrium and saturation binding to IGF-II receptors in the brain; details: for BMAX, IGF-II receptor saturation binding in brains of treated rats: [125I]-IGF-II tracer, pooled brain membranes, 4 weeks after ic-STZ ± IP PPAR agonist
# T2 construct: from tissue; host or cells: rat brain (temporal lobe)
# T2 sequence (G3V824 36-2481): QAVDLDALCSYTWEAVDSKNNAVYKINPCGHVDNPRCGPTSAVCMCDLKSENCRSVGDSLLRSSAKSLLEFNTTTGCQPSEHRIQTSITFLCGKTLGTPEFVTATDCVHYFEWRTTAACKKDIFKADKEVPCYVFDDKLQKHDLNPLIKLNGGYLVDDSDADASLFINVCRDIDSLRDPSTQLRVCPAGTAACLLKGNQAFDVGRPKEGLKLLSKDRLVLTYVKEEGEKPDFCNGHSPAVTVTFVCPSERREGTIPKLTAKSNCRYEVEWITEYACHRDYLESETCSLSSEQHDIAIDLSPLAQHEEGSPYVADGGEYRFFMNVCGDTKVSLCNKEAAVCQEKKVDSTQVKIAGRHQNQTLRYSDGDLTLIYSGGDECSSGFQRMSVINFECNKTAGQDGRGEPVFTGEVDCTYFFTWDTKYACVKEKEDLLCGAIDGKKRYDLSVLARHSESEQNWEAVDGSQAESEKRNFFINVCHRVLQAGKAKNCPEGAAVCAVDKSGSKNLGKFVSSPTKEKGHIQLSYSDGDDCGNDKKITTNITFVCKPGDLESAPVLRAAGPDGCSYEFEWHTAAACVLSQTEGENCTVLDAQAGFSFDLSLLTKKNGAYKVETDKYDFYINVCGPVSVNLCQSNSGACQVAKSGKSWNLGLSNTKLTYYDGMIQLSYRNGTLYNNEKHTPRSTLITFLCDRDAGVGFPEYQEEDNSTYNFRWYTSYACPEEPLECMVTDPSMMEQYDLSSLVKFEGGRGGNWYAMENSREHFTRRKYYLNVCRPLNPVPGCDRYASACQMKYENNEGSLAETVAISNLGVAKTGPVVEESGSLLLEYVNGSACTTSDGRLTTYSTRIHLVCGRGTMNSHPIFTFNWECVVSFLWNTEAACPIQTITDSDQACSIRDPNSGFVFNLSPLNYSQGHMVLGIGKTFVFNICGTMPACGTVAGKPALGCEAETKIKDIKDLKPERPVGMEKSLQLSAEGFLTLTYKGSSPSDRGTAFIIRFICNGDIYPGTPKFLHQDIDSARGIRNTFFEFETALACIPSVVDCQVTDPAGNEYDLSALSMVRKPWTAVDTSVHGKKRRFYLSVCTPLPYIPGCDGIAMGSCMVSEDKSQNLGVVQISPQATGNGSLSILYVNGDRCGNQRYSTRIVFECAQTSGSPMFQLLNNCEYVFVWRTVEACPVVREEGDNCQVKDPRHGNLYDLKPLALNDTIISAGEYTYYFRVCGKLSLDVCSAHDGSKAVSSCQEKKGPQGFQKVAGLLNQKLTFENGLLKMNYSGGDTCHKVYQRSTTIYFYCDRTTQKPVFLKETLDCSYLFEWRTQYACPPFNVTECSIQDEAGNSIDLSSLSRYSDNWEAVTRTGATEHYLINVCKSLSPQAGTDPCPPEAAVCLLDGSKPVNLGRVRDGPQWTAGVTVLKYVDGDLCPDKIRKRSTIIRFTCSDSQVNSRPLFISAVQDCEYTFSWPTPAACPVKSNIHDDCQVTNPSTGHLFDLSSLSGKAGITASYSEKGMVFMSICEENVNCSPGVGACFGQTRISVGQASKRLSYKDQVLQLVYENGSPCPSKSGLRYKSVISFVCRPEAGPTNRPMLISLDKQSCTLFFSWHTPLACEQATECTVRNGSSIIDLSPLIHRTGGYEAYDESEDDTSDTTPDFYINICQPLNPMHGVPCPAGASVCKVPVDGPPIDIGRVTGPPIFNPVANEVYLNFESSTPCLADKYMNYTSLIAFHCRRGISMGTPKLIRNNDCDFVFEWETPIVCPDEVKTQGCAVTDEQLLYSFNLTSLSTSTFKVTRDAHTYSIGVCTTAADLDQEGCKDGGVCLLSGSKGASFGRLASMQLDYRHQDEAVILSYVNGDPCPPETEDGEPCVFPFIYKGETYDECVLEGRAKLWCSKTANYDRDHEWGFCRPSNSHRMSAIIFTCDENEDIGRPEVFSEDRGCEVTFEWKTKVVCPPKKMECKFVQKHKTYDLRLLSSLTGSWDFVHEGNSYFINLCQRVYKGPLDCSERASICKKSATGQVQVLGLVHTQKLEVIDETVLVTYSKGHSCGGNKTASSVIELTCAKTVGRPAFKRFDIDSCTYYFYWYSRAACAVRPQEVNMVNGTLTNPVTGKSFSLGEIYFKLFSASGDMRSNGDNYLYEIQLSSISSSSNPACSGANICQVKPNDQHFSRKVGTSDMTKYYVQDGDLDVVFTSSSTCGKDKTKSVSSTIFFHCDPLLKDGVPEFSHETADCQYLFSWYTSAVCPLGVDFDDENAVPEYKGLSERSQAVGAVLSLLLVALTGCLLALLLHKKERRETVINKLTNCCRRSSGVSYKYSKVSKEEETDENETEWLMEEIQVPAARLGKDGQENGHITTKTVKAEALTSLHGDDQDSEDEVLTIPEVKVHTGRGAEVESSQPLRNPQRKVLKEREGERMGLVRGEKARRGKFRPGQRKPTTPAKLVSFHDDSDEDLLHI
# Protocol: as §1, §2
# [3] = test system: brain gene expression; assay: ic-STZ ± PPAR agonist: real time quantitative RT-PCR of temporal lobe, hypothalamus, cerebellum; details: for ic-STZ associated reductions in IGF-II expression: rat, in vivo; for APP gene expression / Tau gene expression: temporal lobe and hypothalamus; for APP mRNA relative to control and ic-STZ: cerebella
# Protocol: as §1
# Real Time Quantitative RT-PCR: Total RNA isolated from the temporal lobe, hypothalamus, and cerebellum was reverse transcribed using the AMV First Strand cDNA synthesis kit (Roche Diagnostics Corporation, Indianapolis, Ind.) and random oligodeoxynucleotide primers. […] In addition, pathological shifts in cell type associated with ic-STZ-mediated neurodegeneration were detected by measuring the mRNA levels of Hu (neurons), GFAP (astrocytes), myelin-associated glycloprotein (MAG-1; oligodendroglia), and allograft inflammatory factor-1 (AIF-1; microglia) (E. J. Rivera, A. Goldin, N. Fulmer, R. Tavares, J. R. Wands, S. M. de la Monte, J. Alzheimers Dis 8(3) (2005), 247-68). Ribosomal 18S RNA levels measured in parallel reactions were used to calculate the relative abundance of each mRNA transcript (J. E. Yeon, S. Califano, J. Xu, J. R. Wands, S. M. De La Monte. Potential role of PTEN phosphatase in ethanol-impaired survival signaling in the liver. Hepatology 38(3) (2003), 703-14, J. Xu, J. Eun Yeon, H. Chang, G. Tison, G. Jun Chen, J. R. Wands, et al. Ethanol impairs insulin-stimulated neuronal survival in the developing brain: Role of PTEN phosphatase. J Biol Chem (2003)). The gene expression levels were measured by real time quantitative RT-PCR Relative mRNA abundance was determined from the ng ratios of specific mRNA to 18S (J. E. Yeon, S. Califano, J. Xu, J. R. Wands, S. M. De La Monte. Potential role of PTEN phosphatase in ethanol-impaired survival signaling in the liver. Hepatology 38(3) (2003), 703-14, J. Xu, J. Eun Yeon, H. Chang, G. Tison, G. Jun Chen, J. R. Wands, et al. Ethanol impairs insulin-stimulated neuronal survival in the developing brain: Role of PTEN phosphatase. J Biol Chem (2003)).
# [4] = test system: GFAP, HNE, 8-OHdG, ChAT immunoreactivity; assay: ic-STZ ± PPAR agonist: immunohistochemical staining of brain; details: for ChAT immunoreactivity: basal forebrain region; for 8-OHdG immunoreactivity / GFAP immunoreactivity / HNE immunoreactivity: temporal cortex
# Protocol: Histopathological and Immunohistochemical Staining Studies: Whole fresh brains were immersion fixed in Histofix (Amresco, Solon, Ohio) and then sectioned in the coronal plane along standardized landmarks, embedded in paraffin, and processed for histopathological studies. In addition, fresh brains were sectioned in the coronal plane to obtain a ˜3 mm thick slice that flanked the infundibulum. The 3-mm brain slice was snap frozen between two slabs of dry ice, and then stored at −80° C. for later RNA and protein studies. The residual tissue was immersion fixed and processed for histopathological studies. […] As negative controls for the immunostaining reactions, either the primary antibody was omitted or non-relevant monoclonal antibody to Hepatitis B virus was used in place of the relevant antibody. Immunoreactivity was detected using the avidin-biotin horseradish peroxidase complex method (S. M. de la Monte, T. Luong, T. R. Neely, D. Robinson, J. R. Wands. Mitochondrial DNA damage as a mechanism of cell loss in Alzheimer's disease. Lab Invest 80(8) (2000), 1323-35). All sections were examined under code.
# Increased levels of 8-OHdG and 4-hydroxynonenol (HNE) have been detected in brains with AD (W. R. Markesbery, J. M. Carney. Oxidative alterations in Alzheimer's disease. Brain Pathol 9(1) (1999), 133-46, L. M. Sayre, D. A. Zelasko, P. L. Harris, G. Perry, R. G. Salomon, M. A. Smith. 4-Hydroxynonenal-derived advanced lipid peroxidation end products are increased in Alzheimer's disease. J Neurochem 68(5) (1997), 2092-7). […] In addition, it was of interest to relate indices of oxidative stress to GFAP immunoreactivity, which reflects astrocytic responses to tissue injury. Paraffin-embedded histological sections of brain were immunostained to detect GFAP, 8-OHdG or HNE using the ABC method with DAB as the chromogen (brown precipitate) and light hematoxylin as the counterstain.
# [5] = temporal lobe, hypothalamus, cerebellum
Compound,"BMAX, insulin receptor saturation binding in brains of treated rats [1]",mean insulin receptor binding [1],"BMAX, IGF-II receptor saturation binding in brains of treated rats [2]",ChAT expression ([3]; cerebellum),Hu gene expression ([3]; hypothalamus),ic-STZ associated reductions in IGF-II expression [3],NOX 1 mRNA ([3]; temporal lobe),APP gene expression [3],ChAT immunoreactivity [4],8-OHdG immunoreactivity [4],GFAP immunoreactivity [4],HNE immunoreactivity [4],APP mRNA relative to control and ic-STZ [3],AChE mRNA compared with ic-STZ treatment alone ([3]; cerebellum),AIF-1 (microglia) expression relative to ic-STZ group ([3]; cerebellum),GFAP (astrocytes) expression relative to ic-STZ group ([3]; cerebellum),Hu (neurons) expression relative to ic-STZ group ([3]; cerebellum),IGF-I mRNA relative to control ([3]; cerebellum),IGF-II receptor mRNA ([3]; cerebellum),AChE mRNA ([3]; hypothalamus),also measured
"CC(C)(Sc1ccc(CCN(CCCCC2CCCCC2)C(=O)NC2CCCCC2)cc1)C(=O)O [PPAR-α agonist, GW7647]",1.172 fmol/mg protein,significantly increased,7.291 fmol/mg protein,significantly increased,significantly increased,variably prevented,significantly reduced,significantly reduced,variably increased,conspicuously reduced,no clear effect,no clear effect,–,–,–,–,–,–,–,–,MAG-1 gene expression ([3]; hypothalamus): increased
"CC(C)C[C@H](NC(=O)OCC1c2ccccc2-c2ccccc21)C(=O)O [PPAR-γ agonist, F-L-Leu]",1.127 fmol/mg protein,significantly increased,9.223 fmol/mg protein,significantly increased,–,variably prevented,significantly reduced,significantly reduced,variably increased,conspicuously reduced,–,moderately reduced,significantly higher,significantly reduced,increased,decreased,increased,significantly increased,significantly increased,significantly increased,IGF-I receptor mRNA ([3]; temporal lobe and cerebellum): significantly increased; Tau gene expression [3]: restored Tau gene expression to control levels
"CCCc1c(OCCCOc2ccc(OCC(=O)O)cc2)ccc(C(C)=O)c1O [PPAR-δ agonist, L-165,041]",2.186 fmol/mg protein,significantly increased,20.22 fmol/mg protein,significantly increased,significantly increased,–,comparable to control,–,variably increased,conspicuously reduced,conspicuously reduced,conspicuously reduced,significantly higher,significantly reduced,increased,decreased,increased,significantly increased,significantly increased,significantly increased,"insulin receptor binding ([1]; hypothalamus): significantly increased; IGF-II receptor binding ([2]; cerebellum): significantly increased; BMAX for IGF-II receptor (in words) vs ic-STZ group ([2]; rat, in vivo): increased; NOS 2 mRNA ([3]; temporal lobe): comparable to control; p53 mRNA ([3]; temporal lobe): comparable to control; IGF-I receptor mRNA ([3]; temporal lobe and cerebellum): significantly increased; Tau gene expression [3]: restored Tau gene expression to control levels"
CN(N=O)C(=O)NC1C(O)OC(CO)C(O)C1O (stereo not shown) [STZ],0.8421 fmol/mg protein,–,6.431 fmol/mg protein,–,–,–,significantly increased,–,markedly reduced,–,–,–,–,–,–,–,–,–,–,significantly increased,"steady-state insulin receptor binding [1, 5]: significantly reduced; binding to IGF-II receptors ([2]; temporal lobe and cerebellum): reduced; IGF-II receptor expression ([3]; hypothalamus): did not significantly impair; IGF-I mRNA ([3]; hypothalamus and cerebellum): not significantly reduced; IGF-I receptor expression ([3]; hypothalamus and cerebellum): significantly reduced; AChE expression ([3]; temporal lobe): significantly reduced; IGF-I receptor expression ([3]; temporal lobe): did not significantly impair; NOS 2 mRNA ([3]; temporal lobe): significantly increased; NOS 3 mRNA ([3]; temporal lobe): significantly increased; p53 mRNA ([3]; temporal lobe): significantly increased; ChAT mRNA ([3]; temporal lobe and cerebellum): significantly reduced; IGF-II receptor expression ([3]; temporal lobe and cerebellum): significantly reduced; insulin receptor gene expression [3, 5]: significantly reduced"
